How the values were obtained:
S. aureus = assay: Method B: surface disinfectant base solution diluted 1:20, 1 minute (Table 8); type: cell-based; conditions: stock solution in surface disinfectant base diluted 1:20, 1 minute (Method B)
P. aeruginosa = assay: Example 9: phenoxyethanol, PCMX, pine oil compositions diluted 1:20, albumin, 15 seconds (Table 3); type: cell-based; conditions: PXE stock 10.0% w/w, 0.5% w/w in 1 to 20 dilution
Description: Phenoxyethanol, PCMX and pine oil were added to 50% isopropanol in the amounts described in table 3 below (water was added to bring the total weight % of the composition 100%). The compositions described by table 3 were prepared and diluted 1:20 with water and tested using the following method. P. aeruginosa was used as the test organism (10^8 cfu/ml). 0.1 ml culture was added to 0.1 ml of a 3.0% albumin solution, mixed for 5 seconds and left for 2 minutes at room temperature. 0.8 ml of test sample was added and the tube was vortexed for 15 seconds. Serial dilutions were made with Drug Neutralizing Fluid and aliquots were plated on Trypticase soy broth agar plates. The plates were incubated for 24-48 hours and colony counts were then determined.

[1] = oral rinses of WO/2014/092999; cited from earlier work

Compound: Cc1cc(O)cc(C)c1Cl [PCMX]
- log reduction from control growth (S. aureus): 0.5 log

Compound: OCCOc1ccccc1 [PXE]
- Log reduction from control (P. aeruginosa): 0.6 log

Compound: [H]/N=C(\N/C(=N/[H])NCCCCCCNC(=N)NC(=N)Nc1ccc(Cl)cc1)Nc1ccc(Cl)cc1 [chlorhexidine]
- synergistic activity with thymol and vanilla extract [1]: did not show significant synergistic activity

Compound: polyhexamethylene biguanide [PHMB]
- synergistic activity with thymol and vanilla extract [1]: synergistic activity

Reference: US20160374352A1, “BOTANICAL ANTIMICROBIAL COMPOSITIONS” (The Trustees of Columbia University in the City of, priority 2015, published 2016)
